Assays:
[1] = system: p-BTK (Y223); assay: Western Blot of TMD8 xenograft tumor samples; type: in vivo, mice; conditions: Compound B 10 mg/kg; normalized to total BTK
Experimental: (§1) Tumor samples obtained from the study were lysed and Western Blot was performed on the samples to determine the level of BTK and S6 phosphorylation, a downstream effector of PI3K signaling. Western Blots were performed according to the Western Blot procedure described in Example 3B above, using antibodies against p-S6 (S235/236), p-BTK (Y223), BTK and actin. Protein levels were determined using Peggy Sue (ProteinSimple) automated Western Blot system. Normalized AUC were determined for each of the treatment groups: p-BTK (Y223) was normalized to total BTK protein, and p-S6 (S235/236) was normalized to actin.

[2] = system: p-S6 (S235/236); assay: Western Blot of TMD8 xenograft tumor samples; type: in vivo, mice; conditions: single agent; PI3Kδ inhibitor 5 mg/kg, Compound B 10 mg/kg
Experimental: as §1

[3] = system: TMD8 tumor xenograft; assay: TMD8 tumor xenograft model, tumor volume; type: in vivo, mice; parameters: tumor growth: dose or concentration left out as unconfirmed; conditions: oral gavage
Experimental: A TMD8 tumor xenograft model was generated by introducing cultured TMD8 cells into irradiated mice. All animal experiments were performed in accordance with the Institutional Animal Care and Use Committee (IACUC) protocol. Male CB17-SCID mice were treated with 1.44 Gy whole body irradiation using a ^60Co radiation source, and seventy-four hours later, 1×10^7 TMD8 cells were inoculated subcutaneously into the right flank. When tumors reached a mean volume of 200 mm^3, mice were randomly assigned to groups (n=13). […] All test compounds were formulated in 5% (v/v) N-Methyl-2-pyrrolidone (NMP)/55% (v/v) Polyethylene Glycol 300 (PEG) 300/40% (v/v) Water/1% (w/v) Vitamin E D-α-Tocopherol Polyethylene Glycol 1000 Succinate (TPGS). Tumor volume was calculated using the following formula: (length×width^2)/2, where length is the longest diameter across the tumor and width is the corresponding perpendicular diameter. Tumor growth inhibition rate was calculated using the following formula: 1−(tumor sizeend of compound treatment−tumor sizebeginning of compound treatment/tumor sizeend of vehicle treatment−tumor sizebeginning of vehicle treatment)×100.
The Analysis of Variance model for repeated measure was used to determine the treatment effect on tumor growth. The model fitted on tumor volume included factors of treatment, time, and their interaction. […]

[4] = system: TMD8^R cells; assay: Apoptosis, Annexin V assay and propidium iodide by flow cytometry; type: cell-based; conditions: Annexin V at 48 h, Idelalisib=1 μM
Experimental: (§2) Growth inhibition to Idelalisib or other inhibitors was assessed using CellTiter-Glo viability assay at 96 h. […] Cell lines were analyzed by whole exome sequencing, RNASeq, and phosphoproteomics. Protein expression was measured using Simple Western and SDS/PAGE and western blot. Caspase 3/7 was measured using Caspase-Glo 3/7 assay; apoptosis was measured with Annexin V assay and propidium iodide by flow cytometry.

[5] = system: TMD8^R (Idelalisib-resistant line); assay: CellTiter-Glo viability assay at 96 h; type: cell-based; conditions: TMD8^R
Experimental: as §2
Cell viability EC50 was determined using a sigmoidal dose-response (variable slope) curve generated from quadruplicate samples. Statistical significance was determined using the student's t-test for cell viability and two-tailed paired t-test for apoptosis experiments in Prism (GraphPad).
Idelalisib-resistant (TMD8^R) cell line and passage-matched Idelalisib-sensitive (TMD8^S) cell line were generated according to the procedure described in Example 5 above. To characterize the resistant cells, cell viability assays, RNASeq of multidrug resistance (MDR) family of ABC transporter genes (N=33), apoptosis assays, and phosphoprotein analysis were performed. Cell viability was measured using CellTiter-Glo, as described in Example 1A above. Western blot and protein level analysis were performed after treatment with 420 nM idelalisib, 320 nM Compound B and combination thereof, using Peggy Sue (ProteinSimple) automated Western Blot system. Protein concentration (pg/μL) was quantitated using recombinant protein standards. Normalized AUC were determined for each of the treatment groups, normalized to actin. Apoptosis was assessed by propidium iodide and Annexin V/FITC staining and measured by flow cytometry, as described in Example 1A above. Western Blot with anti-p-AKT (S473) antibody and Peggy Sue were used to determine the phosphorylation state of downstream signaling components.

| SMILES | reduction of p-BTK in tumors [1] | effect on p-S6 in tumors [2] | tumor growth inhibition ([3]; 10 mg/kg BID, P<0.05) | tumor growth [3] | apoptosis ([4]; GSK-2334470=1 μM, vehicle control 22%) | apoptosis ([4]; MK-2206=1 μM, vehicle control 24%) | inhibition at 1 µM ([5]; at 1 μM, read-out: Growth inhibition) | EC50 ([5]; single agent, read-out: EC50, cell viability) |
| --- | --- | --- | --- | --- | --- | --- | --- | --- |
| CC#CC(=O)N1CC[C@@H](n2c(=O)n(-c3ccc(Oc4ccccc4)cc3)c3c(N)ncnc32)C1 [Compound B, 6-amino-9-[(3R)-1-(2-butynoyl)-3-pyrrolidinyl]-7-(4-phenoxyphenyl)-7,9-dihydro-8H-purin-8-one] | 35% | did not have an effect | 75% | did not inhibit tumor growth |  |  |  |  |
| CCC(Nc1ncnc2[nH]cnc12)c1nc2cccc(F)c2c(=O)n1-c1ccccc1 (centres unmarked) [Idelalisib, 2-(1-((9H-Purin-6-yl)amino)propyl)-5-fluoro-3-phenylquinazolin-4(3H)-one] |  |  |  |  | 24% | 21% | 19% | > 10 µM |
